This assay relates to KB. Nature of the assay: Cytotoxicity against human KB cells. It counts as functional, cell-based.

The structures appear in SMILES notation.

Take `C#CCCC[C@@H]1NC(=O)[C@H](C(C)C)NC(=O)[C@@H](Cc2ccccc2)N(C)C(=O)[C@@H](C(C)C)N(C)C(=O)[C@H](C(C)C)NC(=O)[C@H](C(C)C)N(C)C(=O)[C@H](C)OC(=O)[C@H]1C` [ULONGAPEPTIN]: the IC50 came out at 630 nM. In other words, the sub-micromolar range.

What is called IC50 is the concentration needed to halve the response being measured.

For the origin of these results see ChEMBL document CHEMBL1159389, “Ulongapeptin, a cytotoxic cyclic depsipeptide from a Palauan marine cyanobacterium Lyngbya sp” (J Nat Prod, 2003).
